We go through eight molecules from paper PMC9098890 (European Journal of Medicinal Chemistry, 2022).

One assay has as its system SARS-CoV-2 (WIV04). Description: Anti-viral activity assay. It counts as cell-based.
The target of the next assay is SARS-CoV-2 3CL^Pro (Severe acute respiratory syndrome coronavirus 2, UniProt P0DTD1). Put plainly: Enzymatic inhibitory activity assay. It counts as biochemical. Conditions: IC50 compared with positive control 1.

Turning to `CC(C)C[C@H](NC(=O)/C=C/c1ccccc1)C(=O)N[C@H](C=O)C[C@@H]1CCNC1=O` [Compound 10b, (S)-2-cinnamamido-4-methyl-N-((S)-1-oxo-3-((S)-2-oxopyrrolidin-3-yl)propan-2-yl)pentanamide], the “reduction of SARS-CoV-2 viral RNA” value with SARS-CoV-2 (WIV04) is reported as “more than 2 logs”.

As to `CCCC[C@H](NC(=O)/C=C/c1ccccc1)C(=O)N[C@H](C=O)C[C@@H]1CCNC1=O` [Compound 10c, (S)-2-cinnamamido-N-((S)-1-oxo-3-((S)-2-oxopyrrolidin-3-yl)propan-2-yl)hexanamide], the “reduction of SARS-CoV-2 viral RNA” value with SARS-CoV-2 (WIV04) is on record as “more than 2 logs”.

Take `CC(C)C[C@H](NC(=O)/C=C/c1ccccc1)C(=O)N[C@H](C=O)C[C@@H]1CCCNC1=O` [Compound 10g, (S)-2-cinnamamido-4-methyl-N-((S)-1-oxo-3-((S)-2-oxopiperidin-3-yl)propan-2-yl)pentanamide]: the “reduction of SARS-CoV-2 viral RNA” value with SARS-CoV-2 (WIV04) was “more than 2 logs”.

As for `CC(C)(C)[C@H](NC(=O)/C=C/c1ccccc1)C(=O)N[C@H](C=O)C[C@@H]1CCCNC1=O` [Compound 10h, (S)-2-cinnamamido-3,3-dimethyl-N-((S)-1-oxo-3-((S)-2-oxopiperidin-3-yl)propan-2-yl)butanamide], in the assay with SARS-CoV-2 (WIV04), the “reduction of SARS-CoV-2 viral RNA” value is listed as “more than 2 logs”.

As to `CC(C)C[C@H](NC(=O)[C@@H](NC(=O)/C=C/c1ccccc1)C(C)C)C(=O)N[C@H](C=O)C[C@@H]1CCCNC1=O` [Compound 14c, (S)-2-((S)-2-cinnamamido-3-methylbutanamido)-4-methyl-N-((S)-1-oxo-3-((S)-2-oxopiperidin-3-yl)propan-2-yl)pentanamide], the “antiviral activity against SARS-CoV-2 (in words)” value in the assay on SARS-CoV-2 (WIV04) is listed as “no antiviral activity”.

For the molecule `CC(C)C[C@H](NC(=O)[C@H](CC1CCCCC1)NC(=O)/C=C/c1ccccc1)C(=O)N[C@H](C=O)C[C@@H]1CCCNC1=O` [Compound 14d, (S)-2-((S)-2-cinnamamido-3-cyclohexylpropanamido)-4-methyl-N-((S)-1-oxo-3-((S)-2-oxopiperidin-3-yl)propan-2-yl)pentanamide], the “reduction of SARS-CoV-2 viral RNA” value with SARS-CoV-2 (WIV04) was “more than 2 logs”.

In the case of `CC(C)C[C@H](NC(=O)[C@@H](NC(=O)c1ccc2ccccc2c1)C(C)C)C(=O)N[C@H](C=O)C[C@@H]1CCCNC1=O` [Compound 17i, N-((S)-3-methyl-1-(((S)-4-methyl-1-oxo-1-(((S)-1-oxo-3-((S)-2-oxopiperidin-3-yl)propan-2-yl)amino)pentan-2-yl)amino)-1-oxobutan-2-yl)-2-naphthamide], in the assay with SARS-CoV-2 (WIV04), the “reduction of SARS-CoV-2 viral RNA” value is reported as “more than 2 logs”.

In the case of `CC(C)C[C@H](NC(=O)[C@@H](NC(=O)c1ccc(Cl)cc1)C(C)C)C(=O)N[C@H](C=O)C[C@@H]1CCCNC1=O` [Compound 17w, 4-chloro-N-((S)-3-methyl-1-(((S)-4-methyl-1-oxo-1-(((S)-1-oxo-3-((S)-2-oxopiperidin-3-yl)propan-2-yl)amino)pentan-2-yl)amino)-1-oxobutan-2-yl)benzamide], at SARS-CoV-2 3CL^Pro, the “increased inhibitory potency versus positive control 1” value is recorded as 4 fold.
